Laboratory results published in article doi:10.1101/2021.04.08.439011v1 (biorxiv, 2021).
Like-named read-outs stand apart in the source and are kept apart here.

Experiments:
MKNK1 = MKNK1 (Homo sapiens, UniProt Q9BUB5); conditions: 0.1 µM; binder
MLK3 = MLK3 (Homo sapiens, UniProt Q16584); conditions: 0.1 µM; binder
MARK2 = MARK2 (Homo sapiens, UniProt Q7KZI7); conditions: 0.1 µM; binder
ABL1 = ABL1 (Homo sapiens, UniProt P00519); conditions: 0.1 µM, binder
ADCK3 = ADCK3 (Homo sapiens, UniProt Q8NI60); conditions: 0.1 µM; binder
DMPK = DMPK (Homo sapiens, UniProt Q09013); conditions: 0.1 µM; binder
Sequence of DMPK (Q09013 whole entry): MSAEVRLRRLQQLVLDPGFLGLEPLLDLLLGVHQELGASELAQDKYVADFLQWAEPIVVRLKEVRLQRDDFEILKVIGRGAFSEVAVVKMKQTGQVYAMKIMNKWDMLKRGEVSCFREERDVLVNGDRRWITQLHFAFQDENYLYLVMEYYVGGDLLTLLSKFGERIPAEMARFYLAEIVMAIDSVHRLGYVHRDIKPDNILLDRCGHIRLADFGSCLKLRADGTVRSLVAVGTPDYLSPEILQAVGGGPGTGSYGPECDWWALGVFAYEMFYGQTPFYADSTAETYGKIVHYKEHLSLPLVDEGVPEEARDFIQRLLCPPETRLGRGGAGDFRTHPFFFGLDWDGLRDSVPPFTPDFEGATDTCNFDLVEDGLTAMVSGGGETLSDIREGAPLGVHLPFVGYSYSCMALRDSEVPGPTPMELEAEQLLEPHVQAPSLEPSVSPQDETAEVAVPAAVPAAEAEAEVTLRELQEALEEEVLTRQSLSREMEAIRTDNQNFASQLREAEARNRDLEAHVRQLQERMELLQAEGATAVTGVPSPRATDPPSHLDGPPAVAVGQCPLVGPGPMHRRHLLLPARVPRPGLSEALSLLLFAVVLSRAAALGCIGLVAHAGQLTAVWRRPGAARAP

NEK6 = NEK6 (Homo sapiens, UniProt Q9HC98); conditions: 0.1 µM; binder
TRPM6 = TRPM6 (Homo sapiens, UniProt Q9BX84); conditions: 0.1 µM; binder
PIK3CG = PIK3CG (Homo sapiens, UniProt P48736); conditions: 0.1 µM; binder
Sequence of PIK3CG (P48736 whole entry): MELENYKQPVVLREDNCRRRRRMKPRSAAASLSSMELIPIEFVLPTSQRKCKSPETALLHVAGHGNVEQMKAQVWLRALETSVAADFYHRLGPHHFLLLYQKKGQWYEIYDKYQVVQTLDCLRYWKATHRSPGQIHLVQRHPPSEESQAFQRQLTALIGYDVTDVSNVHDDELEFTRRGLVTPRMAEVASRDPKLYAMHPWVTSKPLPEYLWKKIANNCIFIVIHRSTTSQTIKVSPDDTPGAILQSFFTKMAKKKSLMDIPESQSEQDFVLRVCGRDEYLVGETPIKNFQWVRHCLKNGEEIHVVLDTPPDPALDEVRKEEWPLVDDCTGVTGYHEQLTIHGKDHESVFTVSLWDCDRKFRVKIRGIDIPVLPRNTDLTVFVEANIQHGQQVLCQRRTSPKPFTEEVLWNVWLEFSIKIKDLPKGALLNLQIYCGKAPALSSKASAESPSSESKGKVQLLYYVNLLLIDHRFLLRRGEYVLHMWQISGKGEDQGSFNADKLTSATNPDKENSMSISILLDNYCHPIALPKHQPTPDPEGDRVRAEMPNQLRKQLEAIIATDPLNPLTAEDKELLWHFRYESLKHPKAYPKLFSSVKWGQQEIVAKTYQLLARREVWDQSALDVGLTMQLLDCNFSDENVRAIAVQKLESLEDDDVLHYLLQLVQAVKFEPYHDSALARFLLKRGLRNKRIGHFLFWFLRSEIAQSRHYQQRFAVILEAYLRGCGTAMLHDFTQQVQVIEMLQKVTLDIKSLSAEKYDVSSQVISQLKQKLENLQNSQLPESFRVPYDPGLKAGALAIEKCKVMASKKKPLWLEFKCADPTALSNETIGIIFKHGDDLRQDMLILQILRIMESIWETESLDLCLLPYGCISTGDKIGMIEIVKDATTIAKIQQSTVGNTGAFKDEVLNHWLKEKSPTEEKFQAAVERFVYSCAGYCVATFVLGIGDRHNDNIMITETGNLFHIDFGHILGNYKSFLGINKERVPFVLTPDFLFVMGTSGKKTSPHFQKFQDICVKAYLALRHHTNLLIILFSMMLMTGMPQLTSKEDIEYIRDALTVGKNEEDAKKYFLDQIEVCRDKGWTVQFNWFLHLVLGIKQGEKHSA

PIK3CA = PIK3CA (Homo sapiens, UniProt P42336); conditions: 0.1 µM; binder
Sequence of PIK3CA (P42336 whole entry): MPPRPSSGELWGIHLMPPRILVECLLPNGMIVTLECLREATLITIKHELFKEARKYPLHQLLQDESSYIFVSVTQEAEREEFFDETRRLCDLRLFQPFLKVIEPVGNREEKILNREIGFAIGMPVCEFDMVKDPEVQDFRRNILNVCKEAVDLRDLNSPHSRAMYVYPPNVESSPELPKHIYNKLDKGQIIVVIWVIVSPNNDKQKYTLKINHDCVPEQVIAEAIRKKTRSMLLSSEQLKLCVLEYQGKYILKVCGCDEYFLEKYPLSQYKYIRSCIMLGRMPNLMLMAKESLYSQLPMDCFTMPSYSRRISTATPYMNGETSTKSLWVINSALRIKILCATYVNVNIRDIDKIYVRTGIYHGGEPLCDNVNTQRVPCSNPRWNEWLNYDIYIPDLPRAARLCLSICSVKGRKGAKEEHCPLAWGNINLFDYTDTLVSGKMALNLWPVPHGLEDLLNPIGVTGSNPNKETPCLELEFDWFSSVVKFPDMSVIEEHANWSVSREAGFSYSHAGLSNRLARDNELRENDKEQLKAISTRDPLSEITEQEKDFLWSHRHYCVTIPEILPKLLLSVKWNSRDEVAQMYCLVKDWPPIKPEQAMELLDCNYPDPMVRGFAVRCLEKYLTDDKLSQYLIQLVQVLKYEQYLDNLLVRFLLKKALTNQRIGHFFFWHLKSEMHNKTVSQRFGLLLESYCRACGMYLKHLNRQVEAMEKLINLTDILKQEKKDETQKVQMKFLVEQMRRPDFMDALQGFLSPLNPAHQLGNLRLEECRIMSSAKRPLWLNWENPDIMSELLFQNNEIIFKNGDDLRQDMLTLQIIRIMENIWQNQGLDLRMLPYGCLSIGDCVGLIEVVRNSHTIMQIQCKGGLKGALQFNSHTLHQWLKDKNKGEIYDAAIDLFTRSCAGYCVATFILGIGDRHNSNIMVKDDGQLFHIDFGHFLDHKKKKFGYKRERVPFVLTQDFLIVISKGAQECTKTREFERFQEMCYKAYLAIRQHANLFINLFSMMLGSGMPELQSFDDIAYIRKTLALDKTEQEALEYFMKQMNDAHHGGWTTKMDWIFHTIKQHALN

ABL1(E255K) = ABL1(E255K) (Homo sapiens, UniProt P00519, E255K); conditions: phosphorylated; 0.1 µM; binder
PLK3 = PLK3 (Homo sapiens, UniProt Q9H4B4); conditions: 0.1 µM; binder
MYLK2 = MYLK2 (Homo sapiens, UniProt Q9H1R3); conditions: 0.1 µM; binder
HIPK4 = HIPK4 (Homo sapiens, UniProt Q8NE63); conditions: 0.1 µM; binder
CAMK2B = CAMK2B (Homo sapiens, UniProt Q13554); conditions: 0.1 µM; binder
EPHA7 = EPHA7 (Homo sapiens, UniProt Q15375); conditions: 0.1 µM; binder
YANK3 = YANK3 (Homo sapiens, UniProt Q86UX6); conditions: 0.1 µM; binder
Sequence of YANK3 (Q86UX6 whole entry): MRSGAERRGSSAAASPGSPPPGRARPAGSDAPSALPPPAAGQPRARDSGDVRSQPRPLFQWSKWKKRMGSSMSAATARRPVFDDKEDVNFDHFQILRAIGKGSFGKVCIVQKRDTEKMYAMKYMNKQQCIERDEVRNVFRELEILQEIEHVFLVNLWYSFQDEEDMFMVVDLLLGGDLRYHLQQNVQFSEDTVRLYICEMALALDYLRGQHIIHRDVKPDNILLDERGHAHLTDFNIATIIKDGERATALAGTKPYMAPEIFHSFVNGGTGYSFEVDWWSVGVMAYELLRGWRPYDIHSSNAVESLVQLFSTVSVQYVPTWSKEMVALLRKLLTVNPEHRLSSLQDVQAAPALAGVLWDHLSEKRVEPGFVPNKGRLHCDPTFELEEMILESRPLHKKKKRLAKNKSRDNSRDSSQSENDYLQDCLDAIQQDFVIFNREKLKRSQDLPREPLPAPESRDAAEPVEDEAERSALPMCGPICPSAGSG

DYRK2 = DYRK2 (Homo sapiens, UniProt Q92630); conditions: 0.1 µM; binder
EPHA4 = EPHA4 (Homo sapiens, UniProt P54764); conditions: 0.1 µM; binder
EPHA6 = EPHA6 (Homo sapiens, UniProt Q9UF33); conditions: 0.1 µM; binder
ABL1(M351T) = ABL1(M351T) (Homo sapiens, UniProt P00519, M351T); conditions: phosphorylated; 0.1 µM; binder
EPHA5 = EPHA5 (Homo sapiens, UniProt P54756); conditions: 0.1 µM; binder
ERK3 = ERK3 (Homo sapiens, UniProt Q16659); conditions: 0.1 µM; binder
ROS1 = ROS1 (Homo sapiens, UniProt P08922); conditions: 0.1 µM; binder
CAMK1D = CAMK1D (Homo sapiens, UniProt Q8IU85); conditions: 0.1 µM; binder
PRKCQ = PRKCQ (Homo sapiens, UniProt Q04759); conditions: 0.1 µM; binder
LATS1 = LATS1 (Homo sapiens, UniProt O95835); conditions: 0.1 µM; binder
AXL = AXL (Homo sapiens, UniProt P30530); conditions: 0.1 µM; binder
TIE2 = TIE2 (Homo sapiens, UniProt Q02763); conditions: 0.1 µM; binder
MRCKB = MRCKB (Homo sapiens, UniProt Q9Y5S2); conditions: 0.1 µM; binder
Sequence of MRCKB (Q9Y5S2 whole entry): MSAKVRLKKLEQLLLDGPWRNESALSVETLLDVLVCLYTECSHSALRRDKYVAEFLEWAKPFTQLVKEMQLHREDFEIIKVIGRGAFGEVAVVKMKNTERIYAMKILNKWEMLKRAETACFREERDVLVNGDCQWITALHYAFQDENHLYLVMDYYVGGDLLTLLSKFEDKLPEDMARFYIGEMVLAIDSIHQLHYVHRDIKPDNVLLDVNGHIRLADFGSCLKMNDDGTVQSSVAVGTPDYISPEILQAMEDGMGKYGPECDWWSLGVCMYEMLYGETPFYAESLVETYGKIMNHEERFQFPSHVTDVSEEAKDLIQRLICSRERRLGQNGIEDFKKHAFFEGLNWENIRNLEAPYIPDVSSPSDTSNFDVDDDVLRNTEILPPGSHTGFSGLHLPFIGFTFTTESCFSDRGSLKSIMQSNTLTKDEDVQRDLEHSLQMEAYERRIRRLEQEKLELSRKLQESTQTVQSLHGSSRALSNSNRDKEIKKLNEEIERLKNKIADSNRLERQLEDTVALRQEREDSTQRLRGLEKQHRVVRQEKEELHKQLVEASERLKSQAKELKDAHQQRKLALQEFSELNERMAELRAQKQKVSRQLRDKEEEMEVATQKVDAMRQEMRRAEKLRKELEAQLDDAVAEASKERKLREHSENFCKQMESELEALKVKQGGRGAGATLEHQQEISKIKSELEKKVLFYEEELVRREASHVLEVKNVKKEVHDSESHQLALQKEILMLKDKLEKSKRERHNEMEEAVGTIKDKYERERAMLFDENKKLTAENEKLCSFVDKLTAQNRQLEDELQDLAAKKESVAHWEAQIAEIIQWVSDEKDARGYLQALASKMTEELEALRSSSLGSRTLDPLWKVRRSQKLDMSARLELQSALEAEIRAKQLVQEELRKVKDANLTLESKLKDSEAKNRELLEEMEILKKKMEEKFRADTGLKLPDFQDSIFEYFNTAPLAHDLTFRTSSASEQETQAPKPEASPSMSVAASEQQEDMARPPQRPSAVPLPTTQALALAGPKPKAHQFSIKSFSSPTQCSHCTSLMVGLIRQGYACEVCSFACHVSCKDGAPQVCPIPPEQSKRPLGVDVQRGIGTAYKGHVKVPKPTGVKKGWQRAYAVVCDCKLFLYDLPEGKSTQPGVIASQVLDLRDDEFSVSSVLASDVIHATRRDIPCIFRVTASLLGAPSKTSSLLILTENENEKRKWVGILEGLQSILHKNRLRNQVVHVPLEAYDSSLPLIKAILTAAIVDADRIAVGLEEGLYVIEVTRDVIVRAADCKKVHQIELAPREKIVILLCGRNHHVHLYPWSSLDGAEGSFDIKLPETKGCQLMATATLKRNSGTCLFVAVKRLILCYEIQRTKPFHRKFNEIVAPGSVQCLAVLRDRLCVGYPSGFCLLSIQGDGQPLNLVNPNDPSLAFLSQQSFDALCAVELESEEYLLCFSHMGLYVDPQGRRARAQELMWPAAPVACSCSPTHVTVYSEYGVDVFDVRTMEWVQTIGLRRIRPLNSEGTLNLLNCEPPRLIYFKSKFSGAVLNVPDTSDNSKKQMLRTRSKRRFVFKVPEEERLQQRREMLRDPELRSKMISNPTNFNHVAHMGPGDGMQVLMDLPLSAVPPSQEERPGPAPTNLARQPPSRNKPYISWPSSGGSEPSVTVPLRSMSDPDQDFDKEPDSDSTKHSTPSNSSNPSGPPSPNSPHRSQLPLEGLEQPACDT

VRK2 = VRK2 (Homo sapiens, UniProt Q86Y07); conditions: 0.1 µM; binder

CNc1ncc2cc(-c3ccc(-c4cccc(C)n4)cc3Cl)c(=O)n(C[C@H]3OC[C@H](N)CO3)c2n1 [compound 6, G-5555]
Percent Control (MKNK1): 100% | Percent Control (MLK3): 100% | Percent Control (MARK2): 100% | Percent Control (ABL1; nonphosphorylated): 94% | Percent Control (ABL1; phosphorylated): 95% | Percent Control (ADCK3): 100% | Percent Control (DMPK): 100% | Percent Control (NEK6): 100% | Percent Control (TRPM6): 100% | Percent Control (PIK3CG): 87% | Percent Control (PIK3CA): 94% | Percent Control (ABL1(E255K)): 100% | Percent Control (PLK3): 86% | Percent Control (MYLK2): 93% | Percent Control (HIPK4): 95% | Percent Control (CAMK2B): 100% | Percent Control (EPHA7): 100% | Percent Control (YANK3): 99% | Percent Control (DYRK2): 100% | Percent Control (EPHA4): 100% | Percent Control (EPHA6): 100% | Percent Control (ABL1(M351T)): 100% | Percent Control (EPHA5): 100% | Percent Control (ERK3): 100% | Percent Control (ROS1): 100% | Percent Control (CAMK1D): 43% | Percent Control (PRKCQ): 81% | Percent Control (LATS1): 57% | Percent Control (AXL): 100% | Percent Control (TIE2): 87% | Percent Control (MRCKB): 73% | Percent Control (VRK2): 94%
